Reference: patent US20240279237A1, “FUSED BICYCLIC HETEROARYL COMPOUNDS USEFUL AS NLRP3 INHIBITORS” (Hoffmann-La Roche Inc., priority 2021, published 2024)
Counter-ions that a name gives are not always drawn.

These molecules were tested against T1, NLRP3 (Homo sapiens, UniProt Q96P20) (assay: THP-1 Cells Pyroptosis Assay). Conditions: THP-1 cells with 1.0 μg/ml LPS; compound 3 hours; nigericin 5 μM 1 hr; resazurin readout.
T1 construct: Seed THP-1 cells (25,000 cells/well) containing 1.0 μg/ml LPS in 40 μl of RPMI medium; host or cells: THP-1 cells
Format: cell-based
Method: The cells were routinely passaged and grown to confluency (˜10^6 cells/ml). On the day of the experiment, THP-1 cells were harvested and resuspended into RPMI medium (without FBS). The cells were then counted and viability (>90%) checked by Trypan blue (Sigma #T8154). […] To this diluted cell solution was added LPS (Sigma #L4524) to give a 1 μg/ml Final Assay Concentration (FAC). 40 μl of the final preparation was aliquoted into each well of a 96-well plate. The plate thus prepared was used for compound screening.
The following method step-by-step assay was followed for compound screening. • 1. […] Incubate for 3 hours at 37° C., 5% CO2 • 4. Add 5 μl nigericin (Sigma #N7143) (FAC 5 μM) to all wells • 5. Incubate for 1 hr at 37° C., 5% CO2 • 6. At the end of the incubation period, spin plates at 300×g for 3 mins and remove supernatant • 7. Then add 50 μl of resazurin (Sigma #R7017) (FAC 100 μM resazurin in RPMI medium without FBS) and incubate plates for a further 1-2 hours at 37° C. and 5% CO2 • 8.

T1 sequence (Q96P20 whole entry): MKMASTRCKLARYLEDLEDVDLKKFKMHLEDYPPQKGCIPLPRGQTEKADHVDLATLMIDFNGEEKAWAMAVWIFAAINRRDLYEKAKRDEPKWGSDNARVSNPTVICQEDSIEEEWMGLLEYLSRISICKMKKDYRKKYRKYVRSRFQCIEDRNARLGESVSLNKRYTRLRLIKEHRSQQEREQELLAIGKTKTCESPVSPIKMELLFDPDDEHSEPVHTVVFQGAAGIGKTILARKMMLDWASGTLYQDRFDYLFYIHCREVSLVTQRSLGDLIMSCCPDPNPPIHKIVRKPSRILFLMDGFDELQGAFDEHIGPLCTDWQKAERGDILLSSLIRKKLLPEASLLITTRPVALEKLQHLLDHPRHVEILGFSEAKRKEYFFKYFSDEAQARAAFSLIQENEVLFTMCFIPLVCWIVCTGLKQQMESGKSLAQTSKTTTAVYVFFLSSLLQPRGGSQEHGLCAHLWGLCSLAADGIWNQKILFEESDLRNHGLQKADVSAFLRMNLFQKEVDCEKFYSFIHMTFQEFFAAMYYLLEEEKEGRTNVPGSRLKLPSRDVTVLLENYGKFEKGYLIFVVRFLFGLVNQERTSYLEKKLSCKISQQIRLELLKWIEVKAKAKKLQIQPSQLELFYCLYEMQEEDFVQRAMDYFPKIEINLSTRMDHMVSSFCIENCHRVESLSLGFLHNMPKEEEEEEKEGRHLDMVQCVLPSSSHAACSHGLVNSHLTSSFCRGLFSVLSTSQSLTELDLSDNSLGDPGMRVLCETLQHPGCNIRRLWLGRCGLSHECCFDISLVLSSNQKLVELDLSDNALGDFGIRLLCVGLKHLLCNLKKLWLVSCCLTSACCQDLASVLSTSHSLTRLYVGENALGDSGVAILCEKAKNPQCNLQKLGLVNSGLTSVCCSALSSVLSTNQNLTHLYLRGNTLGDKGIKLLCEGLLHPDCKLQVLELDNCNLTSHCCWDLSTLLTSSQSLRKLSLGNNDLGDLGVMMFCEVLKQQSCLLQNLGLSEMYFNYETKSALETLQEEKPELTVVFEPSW

| Structure (SMILES) | IC50 [nM] |
| --- | --- |
| Cc1cc(C#N)cc(O)c1-c1ccc2oc(N3CCC4CCN(C)CC43)nc2n1 (single isomer, unassigned) [Example 27B, 4-[2-[(3aR,7aS or 3aS,7aR)-6-methyl-3,3a,4,5,7,7a-hexahydro-2H-pyrrolo[2,3-c]pyridin-1-yl]oxazolo[4,5-b]pyridin-5-yl]-3-hydroxy-5-methyl-benzonitrile] | 2.7 |
| Cc1cc(C(F)(F)F)cc(O)c1-c1ccc2oc(N3CC[C@@H]4CCN(C)C[C@@H]43)nc2n1 (single isomer, unassigned) [Example 37A, 2-[2-[(3aS,7aR)-6-Methyl-3,3a,4,5,7,7a-hexahydro-2H-pyrrolo[2,3-c]pyridin-1-yl]oxazolo[4,5-b]pyridin-5-yl]-3-methyl-5-(trifluoromethyl)phenol or 2-[2-[(3aR,7aS)-6-methyl-3,3a,4,5,7,7a-hexahydro-2H-pyrrolo[2,3-c]pyridin-1-yl]oxazolo[4,5-b]pyridin-5-yl]-3-methyl-5-(trifluoromethyl)phenol] | 216 |
| Cc1cc(C(F)(F)F)cc(O)c1-c1ccc2oc(N3CC[C@H]4CCN(C)C[C@H]43)nc2n1 (single isomer, unassigned) [Example 37B, 2-[2-[(3aR,7aS)-6-methyl-3,3a,4,5,7,7a-hexahydro-2H-pyrrolo[2,3-c]pyridin-1-yl]oxazolo[4,5-b]pyridin-5-yl]-3-methyl-5-(trifluoromethyl)-phenol or 2-[2-[(3aS,7aR)-6-Methyl-3,3a,4,5,7,7a-hexahydro-2H-pyrrolo[2,3-c]pyridin-1-yl]oxazolo[4,5-b]pyridin-5-yl]-3-methyl-5-(trifluoromethyl)phenol] | 1.1 |
| CCN1CCC2CCN(c3nc4nc(-c5c(C)cc(C#N)cc5O)ccc4o3)C2C1 (single isomer, unassigned) [Example 72A, 4-[2-[(3aS,7aR)-6-Ethyl-3,3a,4,5,7,7a-hexahydro-2H-pyrrolo[2,3-c]pyridin-1-yl]oxazolo[4,5-b]pyridin-5-yl]-3-hydroxy-5-methyl-benzonitrile or 4-[2-[(3aR,7aS)-6-ethyl-3,3a,4,5,7,7a-hexahydro-2H-pyrrolo[2,3-c]pyridin-1-yl]oxazolo[4,5-b]pyridin-5-yl]-3-hydroxy-5-methyl-benzonitrile] | 1 |
| CCN1CCC2CCN(c3nc4nc(-c5c(C)cc(C#N)cc5O)ccc4o3)C2C1 (single isomer, unassigned) [Example 72B, 4-[2-[(3aR,7aS)-6-ethyl-3,3a,4,5,7,7a-hexahydro-2H-pyrrolo[2,3-c]pyridin-1-yl]oxazolo[4,5-b]pyridin-5-yl]-3-hydroxy-5-methyl-benzonitrile or 4-[2-[(3aS,7aR)-6-Ethyl-3,3a,4,5,7,7a-hexahydro-2H-pyrrolo[2,3-c]pyridin-1-yl]oxazolo[4,5-b]pyridin-5-yl]-3-hydroxy-5-methyl-benzonitrile] | 310 |
| Cc1cc(Cl)cc(O)c1-c1ccc2oc([C@H]3CCC(=O)NC3)nc2n1 (single isomer, unassigned) [Example 73A, (5S)-5-[5-(4-Chloro-2-hydroxy-6-methyl-phenyl)oxazolo[4,5-b]pyridin-2-yl]piperidin-2-one or (5R)-5-[5-(4-Chloro-2-hydroxy-6-methyl-phenyl)oxazolo[4,5-b]pyridin-2-yl]piperidin-2-one] | 18.7 |
| Cc1cc(Cl)cc(O)c1-c1ccc2oc([C@@H]3CCC(=O)NC3)nc2n1 (single isomer, unassigned) [Example 73B, (5R)-5-[5-(4-Chloro-2-hydroxy-6-methyl-phenyl)oxazolo[4,5-b]pyridin-2-yl]piperidin-2-one or (5S)-5-[5-(4-chloro-2-hydroxy-6-methyl-phenyl)oxazolo[4,5-b]pyridin-2-yl]piperidin-2-one] | 78.7 |
| Cc1cc(C#N)cc(O)c1-c1ccc2oc(N[C@H]3CCCN4CCC[C@@H]34)nc2n1 (single isomer, unassigned) [Example 139A, 4-[2-[[(8S,8aS)-1,2,3,5,6,7,8,8a-Octahydroindolizin-8-yl]amino]oxazolo[4,5-b]pyridin-5-yl]-3-hydroxy-5-methyl-benzonitrile or 4-[2-[[(8R,8aR)-1,2,3,5,6,7,8,8a-octahydroindolizin-8-yl]amino]oxazolo[4,5-b]pyridin-5-yl]-3-hydroxy-5-methyl-benzonitrile] | 3.7 |
| Cc1cc(C#N)cc(O)c1-c1ccc2oc(NC3CCCN4CCCC34)nc2n1 (single isomer, unassigned) [Example 139B, 4-[2-[[(8R,8aR)-1,2,3,5,6,7,8,8a-Octahydroindolizin-8-yl]amino]oxazolo[4,5-b]pyridin-5-yl]-3-hydroxy-5-methyl-benzonitrile or 4-[2-[[(8S,8aS)-1,2,3,5,6,7,8,8a-octahydroindolizin-8-yl]amino]oxazolo[4,5-b]pyridin-5-yl]-3-hydroxy-5-methyl-benzonitrile] | 59.9 |
| Cc1cc(C(F)(F)F)cc(O)c1-c1ccc2oc(N3CCOCC3)nc2n1 [Example 4, 3-Methyl-2-(2-morpholinooxazolo[4,5-b]pyridin-5-yl)-5-(trifluoromethyl)phenol] | 29.4 |
| Cc1cc(C(F)(F)F)cc(O)c1-c1ccc2oc(N3CCNCC3)nc2n1 [Example 6, 3-Methyl-2-(2-piperazin-1-yloxazolo[4,5-b]pyridin-5-yl)-5-(trifluoromethyl)phenol formic acid salt] | 86.6 |
| Cc1cc(C(F)(F)F)cc(O)c1-c1ccc2[nH]c(N3CCNCC3)nc2n1 [Example 8, 3-Methyl-2-(2-piperazin-1-yl-1H-imidazo[4,5-b]pyridin-5-yl)-5-(trifluoromethyl)phenol;2,2,2-trifluoroacetic acid] | 302 |
| Cc1cc(C(F)(F)F)cc(O)c1-c1ccc2oc(N3CC(O)C3)nc2n1 [Example 12, 1-[5-[2-Hydroxy-6-methyl-4-(trifluoromethyl)phenyl]oxazolo[4,5-b]pyridin-2-yl]azetidin-3-ol] | 215 |
| Cc1cc(C(F)(F)F)cc(O)c1-c1ccc2oc(NC3CCCC(O)C3)nc2n1 (stereo not drawn) [Example 13, 2-[2-[(3-Hydroxycyclohexyl)amino]oxazolo[4,5-b]pyridin-5-yl]-3-methyl-5-(trifluoromethyl)phenol] | 442 |
| CCN1CCC[C@@H](Nc2nc3nc(-c4c(C)cc(C(F)(F)F)cc4O)ccc3o2)C1 [Example 14, 2-[2-[[(3R)-1-Ethyl-3-piperidyl]amino]oxazolo[4,5-b]pyridin-5-yl]-3-methyl-5-(trifluoromethyl)phenol] | 1 |
| Cc1cc(C(F)(F)F)cc(O)c1-c1ccc2oc(N[C@@H]3CCCN(C)C3)nc2n1 [Example 15, 3-Methyl-2-[2-[[(3R)-1-methyl-3-piperidyl]amino]oxazolo[4,5-b]pyridin-5-yl]-5-(trifluoromethyl)phenol] | 0.7 |
| CCN1CCC[C@@H](Nc2nc3nc(-c4c(C)cc(Cl)c(F)c4O)ccc3o2)C1 [Example 21, 5-Chloro-2-[2-[[(3R)-1-ethyl-3-piperidyl]amino]oxazolo[4,5-b]pyridin-5-yl]-6-fluoro-3-methyl-phenol;2,2,2-trifluoroacetic acid salt] | 0.6 |
| CCN1CCC[C@@H](Nc2nc3nc(-c4c(O)cc(Cl)cc4C#N)ccc3o2)C1 [Example 23, 5-Chloro-2-[2-[[(3R)-1-ethyl-3-piperidyl]amino]oxazolo[4,5-b]pyridin-5-yl]-3-hydroxy-benzonitrile] | 4.2 |
